Laboratory results as given in US6291657A (priority 1993, dated 2001).
Entries after “also recorded” stand apart in the source; their conditions may differ. Where two headings read alike, the source gives them in different places.

Assays:
α-glucosidase I and II = assay: Inhibition of purified processing α-glucosidase I and II; type: biochemical; conditions: for inhibition of processing α-glucosidases I and II / N-linked oligosaccharide processing: in words
Procedure: Porcine liver α-glucosidase I and rat liver α-glucosidase II were purified to homogeneity and assayed by conventional procedure using a [^14 C]-glucose labelled Glc3 Man9 GlcNAc2 substrate as previously described by Karlsson et al., J. Biol. Chem. 268, 570-576 (1993).
Enzymes were assayed according to procedure described hereinbefore using
The data from FIG. 8 were […]

[1] = tested on: glycolipid biosynthesis in HL-60 cells; assay: Inhibition of glycolipid biosynthesis in HL-60 cells, [14C]-palmitic acid labelling, 1D-TLC; type: cell-based, human; conditions: for minimal effective concentration: Homo sapiens;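 on all read-outs here: cells cultured 24 h with or without test compound, total cellular lipids resolved by one-dimensional TLC and detected by autoradiography, inhibition shown as missing Glc-Cer and gangliosides versus untreated cells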
[2] = tested on: Glc-Cer accumulation in WEHI-3B murine macrophage cells; assay: In vitro Gaucher's disease model: CBE induced glycolipid storage in WEHI-3B cells, 1D-TLC; type: cell-based; conditions: for prevention of glycolipid storage in in vitro Gaucher's disease model (in words): CBE
Procedure: In this model, the murine macrophage cell line WEHI-3B was cultured in the presence of an irreversible glucocerebrosidase inhibitor, conduritol β epoxide (CBE), to mimic the inherited disorder found in Gaucher's disease. WEHI-3B cells are well-known, widely distributed and readily available murine macrophage cells. They are described in Cancer Res. 37, 546-550 (1977), and are readily available from the American Type Culture Collection, Rockville, Md, under accession number ATCC TIB 68. The compounds of the invention prevent lysosomal glycolipid storage which is useful for the management of Gaucher's disease and other glycolipid storage disorders as illustrated hereinafter in Table 3. Gaucher's disease is an autosomal recessive disorder characterized by an impaired ability to degrade glucocerebroside (glucosyl ceramide, Glc-Cer) due to mutations in the gene encoding β-glucocerebrosidase (β-D-glucosyl-N-acylsphingosine glucohydrolase, EC 3.2.1.45). This defect results in the lysosomal accumulation of Glc-Cer in cells of the macrophage-monocyte system [Barranger and Ginns, in The Metabolic Basis of Inherited Diseases, ed. Scriver et al., pp. 1677-1698, McGraw-Hill, New York, (1989); Beutler, Science 256, 794-799 (1992)]. By slowing the rate of glycolipid synthesis, the impaired catabolism of Glc-Cer can be offset, thereby leading to the maintenance of a balanced level of Glc-Cer.
FIGS. 5 and 6 show the analysis of NB-DNJ and NB-DGJ in an in vitro Gaucher's disease model.
The in vitro Gaucher's disease model was prepared as follows: WEHI-3B cells (American Type Culture Collection, Rockville, Md., U.S.A.) were maintained in logarithmic phase growth for 14 days in RPMI-1640 medium, 10% FCS, in the presence or absence of 50 μM conduritol β epoxide (CBE, Toronto Research Chemicals, Downsview, Canada) with or without NB-DNJ or NB-DGJ. Cells were passaged every 3 days and compound concentrations maintained throughout. Equal cell numbers (5×10^6) were harvested, extracted in 1 ml chloroform: methanol (2:1 v/v) overnight at 4° C., the extracts centrifuged, the chloroform:methanol extract retained and the pellet re-extracted as above for 2 hr. at room temperature. Pooled extracts were dried under nitrogen, re-dissolved in 10 μl chloroform:methanol (2:1 v/v) and separated by 1D-TLC in chloroform:methanol:water […]. Plates were air dried and visualized using α-naphthol (1% w/v in methanol) followed by 50% (v/v) sulphuric acid.

## CCCCN1C[C@H](O)[C@@H](O)[C@@H](O)[C@H]1CO [NB-DGJ, N-butyl deoxygalactonojirimycin]
α-glucosidase I and II
  inhibition of processing α-glucosidases I and II / N-linked oligosaccharide processing: does not inhibit N-linked oligosaccharide processing
α-glucosidase I and II; listed as N-butyl DGJ
  inhibition of processing α-glucosidases I and II / N-linked oligosaccharide processing: does not inhibit
α-glucosidase I and II; mixture of purified α-glucosidases I and II
  IC50: 2130 µM
[1]; HL-60, 500 μM, 1D-TLC
  lipid species whose biosynthesis was inhibited: inhibited the biosynthesis of Glc-Cer, gangliosides and an unknown lipid species
[1]; HL-60, 500 μM, 1D-TLC (FIG. 1)
  inhibition of glycolipid biosynthesis: specifically inhibited glycolipid biosynthesis
[1]; HL-60, 0.5 mM, 1D-TLC (FIG. 4), listed as N-butyl DGJ
  effect of N-alkyl chain length on inhibition of glycolipid biosynthesis (loss of detectable Glc-Cer): completely prevented glycolipid biosynthesis; also recorded: completely inhibited glycolipid biosynthesis
[1]; HL-60, relatively low concentration, read-out: concentration inhibitory of glycolipid biosynthesis
  minimal effective concentration: ~50 µM
[1]; HL-60, 1D-TLC (FIG. 3), partial inhibition, read-out: concentrations as low as which partial inhibition occurred
  minimal effective concentration: 0.5 to 5 µM
[2]
  prevention of glycolipid storage in in vitro Gaucher's disease model (in words): as effective as NB-DNJ
[2]; listed as N-butyl DGJ
  prevention of glycolipid storage in in vitro Gaucher's disease model (in words): offset glucoceramide accumulation
[2]; Mus musculus, WEHI3B, 336 h, 50 μM CBE, 14 days (FIG. 5), read-out: dose range preventing CBE induced glycolipid storage
  minimal effective concentration: 5 to 50 µM
